Assay results as given in patent US20090155352A1, “Microemulsion containing indolocarbazole compound and dosage forms containing the same” (Cephalon, Inc., priority 2007, published 2009).
In brackets after ≈: the same amount, converted by molar mass. Blank lines part the entries; values can stand above or below the compound they belong to.

Columns and labels:
[1] = AIBN forced degradation screen of antioxidants in lestaurtinib microemulsions; assay type: physicochemical; settings: AIBN screening; for antioxidant effect against oxidation of lestaurtinib microemulsion: first experiment, thirteen formulations
Protocol: Various antioxidants were evaluated for their effectiveness in relation to the composition of the invention. In an initial experiment, capsules containing a lestaurtinib composition prepared according to the invention were placed on accelerated stability conditions. Several impurities were determined (LC-MS) to be related to the oxidation of lestaurtinib. Subsequently, a forced degradation experiment was performed using the radical initiator azoisobutyronitrile (AIBN) adapted for use with lestaurtinib. This was based on the fact that AIBN radical initiates the autoxidation mechanism that the majority of active ingredients follow for oxidation.
Using AIBN as a screening tool, a series of microemulsions prepared in accordance with the invention were formulated using different antioxidants to identify suitable solutions for preventing degradation of the composition. The first experiment used thirteen formulations using several classes of antioxidants (i.e., oxygen scavengers, sacrificial antioxidants and H-atom donors) to determine which reaction pathway was critical for disrupting the oxidation process. From this first experiment, several antioxidants were identified as efficacious: ascorbic acid, vitamin E, BHA and BHT.
A second experiment was then performed based on the information obtained from the first experiment. The second experiment evaluated combinations of antioxidants from different classes, different isomers of the same antioxidants, and mixtures of water-soluble and oil-soluble antioxidants.

[2] = Water solubility of lestaurtinib; assay type: physicochemical; settings: at 22° C.
[3] = Maximum solubility of lestaurtinib in prior solid state solution / SEDDS formulations; settings: vehicle 25% PEG 400, 25% PEG 1000, 50% MYRJ 52, no added water
Text: This formulation was a self-emulsifying drug delivery system (SEDDS) comprised of a blend of polyoxyethylene glycols (PEGs) and MYRJ® 52 (polyoxyethylene 40 stearate surfactant available from Croda N.A., Parsippany, N.J.).

[4] = Solubilized concentration of lestaurtinib in microemulsion formed with added water
Protocol: In one embodiment, microemulsions containing solubilized indolocarbazole compounds, e.g., lestaurtinib, can be prepared using the hydrophilic component and water in the excipient composition but without the presence of the surfactant, e.g., MYRJ®. In one example, a composition without surfactant was prepared as follows. Lestaurtinib 120 mg was weighed into a glass vial and 2 mL of molten PEG-1450 was added.

[5] = microemulsion with water addition

Compound: COc1ccc(O)c(C(C)(C)C)c1 [BHA, butylhydroxyanisole]
- antioxidant effect against oxidation of lestaurtinib microemulsion [1]: efficacious

- antioxidant effect against oxidation of lestaurtinib microemulsion [1]: efficacious
Compound: O=C1O[C@H]([C@@H](O)CO)C(O)=C1O [ascorbic acid]

Compound: C[C@]12O[C@H](C[C@]1(O)CO)n1c3ccccc3c3c4c(c5c6ccccc6n2c5c31)CNC4=O [lestaurtinib, [9S-(9α,10β,12α)]-2,3,9,10,11,12-hexahydro-10-hydroxy-10-(hydroxymethyl)-9-methyl-9,12-epoxy-1H-diindolo[1,2,3-fg:3′,2′,1′-kl]pyrrolo[3,4-i][1,6]benzodiazocin-1-one]
- solubility [2]: 1.7 µg/mL (≈ 3.87 µM)
- maximum solubility obtainable in SEDDS formulation [3]: about 29 mg/g
- final concentration of lestaurtinib in clear solution ([4]; Example 13, PEG-1450 and water, without surfactant, by HPLC): 59.2 mg/mL
- solubilized concentration achieved using the invention [4, 5]: 87 mg/g
- solubilized concentration achieved using the invention (total composition weight) [4, 5]: about 9%

Compound: O=S([O-])S(=O)(=O)[O-].[K+].[K+] [potassium metabisulfite]
- effect on impurity levels in final formulation ([1]; second experiment): decreased the overall impurity levels

- antioxidant effect against oxidation of lestaurtinib microemulsion [1]: efficacious
Compound: vitamin E
